These are literature values, as cited in patent publication US6071925A (priority 1997, dated 2000).

Series [1] concerns LC 132 receptor. The conditions noted are these: CHO(LC 132+) cells in culture.
The test system of series [2] is mice. The conditions noted are these: intra-cerebroventricular.
Series [3] concerns mice. The conditions noted are these: intra-cerebroventricular. This is another data set of the same source.

In the case of “OFQ: seventeen amino-acid-long peptide (F-G-G-F-T-G-A-R-K-S-A-R-K-L-A-N-Q), natural ligand for the G-protein coupled receptor OFQ-R”, the “effect on adenylate cyclase” value in series [1] is “inhibits adenylate cyclase”. In addition, the “effect on locomotive activity” value in series [2] was “slowed down locomotive activity”. Also, the effect on nociception result in series [3] is reported as “induces hyperalgesia”.
